Measurements from patent US20240016769A1, “Method for preparing compound or biological drug enhancing CNPase activity for treating heart diseases” (ZHUHAI YUANZHI HEALTH TECH CO. LTD., priority 2020, published 2024).

System: CNPase
Assay: CNPase enzyme activity in Ang-II induced cardiac hypertrophy cells
Assay type: cell-based
Details: n = 3
From the text: The enzyme activity of CNPase in hypertrophic myocardium was detected by the detection method of calf intestinal alkaline phosphatase activity.

For `C[C@@]12CC[C@@H]3[C@@](CC[C@H]4[C@@]3(C)CCC[C@@]4(C)C(=O)[O-])(CC1=O)C2.[Na+]` [STVNa, sodium isosteviol], the CNPase activity (STVNa + Ang II, cardiac hypertrophy induced by Ang-II, Control 1.000, Ang-II alone 0.2266) was 0.9629 ± 0.411, the CNPase activity (STVNa + Ang II, cardiac hypertrophy induced by Ang-II, Control 1.000, Ang-II alone 0.2266, listed as sodium isosteviol) was “enhances CNPase activity” and the CNPase activity (STVNa alone, no Ang-II, Control 1.000) was 0.9326 ± 0.241.
